# Results reported in patent publication US4364953A, “2-0- and 5-0-Substituted 1.4;3.6-dianhydrohexitol mononitrates and pharmaceutical composition” (Firma Willmar Schwabe, priority 1980, dated 1982).
# Where two headings read alike, the source gives them in different places.
# Tests used:
# [1] = in vivo; conditions: mouse, iv, Evaluated LD50 -range, mice, as hydrochloride
# Description: (§1) The compounds were injected to at least 3 animals per dose. If no animal had yet been died following to the highest dose which was administered, no more doses of substances were tested. In case of doubt, the examination was repeated with at least 3 more animals applying the same dose.
# (§2) The rate of death within 24 hours after administration was observed.
# [2] = system: female NMRI-albino mice; assay: Acute toxicity, intravenous, female NMRI-albino mice; conditions: for Frequency of death with an intravenous dose of 100 mg/kg: 100 mg/kg i.v. as hydrochloride in physiological saline; for Frequency of death with an intravenous dose of 100 mg/kg / Frequency of death with an intravenous dose of 200 mg/kg: death within 24 hours, dead/treated; for Frequency of death with an intravenous dose of 200 mg/kg: 200 mg/kg i.v. as hydrochloride in physiological saline
# Description: as §1, §2
# [3] = system: isolated guinea pig hearts; assay: Experiments on the Langendorff heart (isolated guinea pig hearts); conditions: Cavia porcellus, 25 μg./ml. test substance in 50 ml. tyrode solution, average of 3-6 hearts
# [4] = system: narcotised guinea pigs; assay: Blood pressure experiments on the narcotised guinea pig (i.v.); conditions: for blood pressure afterwards: after administration; for blood pressure previously: before administration (baseline); for blood pressure-lowering effectiveness compared with ISMN and ISDN: in words, guinea pig i.v., Table III
# [5] = system: isolated rat aorta preparations
# Excerpt: Here, too, ISDN and ISMN were chosen as comparison compounds.
# [6] = system: mongrel cats; assay: Heart-circulation effectiveness in narcotised mongrel cats, intraduodenal administration; conditions: 5 mg/kg intraduodenal, cat
# Description: The animals were narcotised with a mixture of chloralose-urethane (1.2 g./kg. urethane+40 mg./kg chloralose administered i.p.). They breathed spontaneously through a tracheal canula. The A. carotis was used in order to place a catheter tip manometer in the left heart chamber. The V. jugularis served for injection purposes. Via the A. femoralis, a catheter was inserted into the Aorta descendans and attached to a pressure recorder (Statham P 23 Db). The heart frequency was recorded with a pulse frequency measurer (firm Hugo Sachs Elektronik) from the left ventricular pressure signal. A duodenal loop was exposed by laparotomy. The substances to be tested were injected directly into the lumen.
# [7] = read-out: flowthrough, percentage change in comparison with the initial value
# [8] = read-out: frequency, percentage change in comparison with the initial value
# [9] = read-out: inotropism, percentage change in comparison with the initial value
# [10] = read-out: noradrenaline spasm, […]
# [11] = read-out: potassium chloride spasm, […]
# [12] = 0 min (baseline), average ± standard error, 6 animals
structure (smiles),measurement,setting,value
"O=C(O[C@@H]1CO[C@H]2[C@@H]1OC[C@H]2O[N+](=O)[O-])c1cccnc1 [Example 8, 1.4;3.6-Dianhydro-D-mannitol 2-nitrate 5-nicotinate]",LD50 at 24 h,[1],< 200 mg/kg
same,Frequency of death with an intravenous dose of 100 mg/kg,[2],0/6
same,Frequency of death with an intravenous dose of 200 mg/kg,[2],3/3
same,Evaluated LD50 -range,"[2]; i.v., mice, as hydrochloride, 24 hours, 1440 min",> 100 mg/kg
"O=[N+]([O-])O[C@H]1CO[C@H]2[C@@H]1OC[C@@H]2Oc1ccc(Cl)cc1 [Example 1c, 5-O-(4-Chlorophenyl)-1.4;3.6-dianhydro-L-iditol 2-nitrate]",activation at 25 µg/mL,[3]; [7],19.8%
same,activation at 25 µg/mL,[3]; [8],2.89%
same,activation at 25 µg/mL,[3]; [9],12.2%
same,blood pressure Δ,[4]; 0.25 mg/kg i.v.,-1.60 mm.Hg
same,blood pressure afterwards,[4]; 0.25 mg/kg i.v.,59.70 ± 2.40 mm.Hg
same,blood pressure previously,[4]; 0.25 mg/kg i.v.,61.30 ± 2.60 mm.Hg
same,blood pressure Δ,[4]; 1.00 mg/kg i.v.,-15.00 mm.Hg
same,blood pressure afterwards,[4]; 1.00 mg/kg i.v.,46.90 ± 1.20 mm.Hg
same,blood pressure previously,[4]; 1.00 mg/kg i.v.,61.90 ± 1.90 mm.Hg
same,blood pressure Δ,[4]; 2.50 mg/kg i.v.,-23.00 mm.Hg
same,blood pressure afterwards,[4]; 2.50 mg/kg i.v.,37.60 ± 1.00 mm.Hg
same,blood pressure previously,[4]; 2.50 mg/kg i.v.,60.60 ± 1.80 mm.Hg
same,IC50,[5]; [10],0.14 µM
same,IC50,[5]; [11],3.18 µM
"CS(=O)(=O)O[C@@H]1CO[C@H]2[C@@H]1OC[C@@H]2O[N+](=O)[O-] [Example 4, 1.4;3.6-Dianhydro-D-glucitol 2-nitrate 5-methanesulphonate]",activation at 25 µg/mL,[3]; [7],44.3%
same,activation at 25 µg/mL,[3]; [8],0%
same,activation at 25 µg/mL,[3]; [9],0%
same,IC50,[5]; [10],2.2 µM
same,IC50,[5]; [11],2.8 µM
"O=C(O[C@H]1CO[C@H]2[C@@H]1OC[C@H]2O[N+](=O)[O-])c1cccnc1 [Example 7b, 1.4;3.6-Dianhydro-D-glucitol 2-nicotinate 5-nitrate]",LD50 at 24 h,[1],> 200 mg/kg
same,Frequency of death with an intravenous dose of 200 mg/kg,[2],0/6
same,IC50,[5]; [10],20 µM
same,IC50,[5]; [11],44 µM
"O=C(O[C@@H]1CO[C@H]2[C@@H]1OC[C@@H]2O[N+](=O)[O-])c1cccnc1 [Example 5b, 1.4;3.6-Dianhydro-D-glucitol 2-nitrate 5-nicotinate]",activation at 25 µg/mL,[3]; [7],23.6%
same,activation at 25 µg/mL,[3]; [8],-9.13%
same,activation at 25 µg/mL,[3]; [9],15.8%
same,LD50 at 24 h,[1],> 100 mg/kg
same,Frequency of death with an intravenous dose of 100 mg/kg,[2],0/6
same,blood pressure Δ,[4]; 0.25 mg/kg i.v.,-7.70 mm.Hg
same,blood pressure afterwards,[4]; 0.25 mg/kg i.v.,55.00 ± 1.00 mm.Hg
same,blood pressure previously,[4]; 0.25 mg/kg i.v.,62.70 ± 3.00 mm.Hg
same,blood pressure Δ,[4]; 1.00 mg/kg i.v.,-18.00 mm.Hg
same,blood pressure afterwards,[4]; 1.00 mg/kg i.v.,44.30 ± 0.90 mm.Hg
same,blood pressure previously,[4]; 1.00 mg/kg i.v.,62.30 ± 4.10 mm.Hg
same,blood pressure Δ,[4]; 2.50 mg/kg i.v.,-28.00 mm.Hg
same,blood pressure afterwards,[4]; 2.50 mg/kg i.v.,33.30 ± 0.70 mm.Hg
same,blood pressure previously,[4]; 2.50 mg/kg i.v.,61.30 ± 4.90 mm.Hg
same,blood pressure-lowering effectiveness compared with ISMN and ISDN,[4],actions similar to those of ISDN
same,blood pressure,[6]; [12],123.5 ± 7.3 mm.Hg
same,dp/dt (inotropism),[6]; [12],10625 ± 2083 mm.sec.
same,heart frequency,[6]; [12],211.5 ± 19.3 min⁻¹
same,blood pressure,[6]; 10 min after admin.,98.3 ± 6.2 mm.Hg
same,dp/dt (inotropism),[6]; 10 min after admin.,8050 ± 1204 mm.sec.
same,heart frequency,[6]; 10 min after admin.,209.5 ± 19.2 min⁻¹
same,blood pressure Δ,[6]; 10 min versus 0 min,-25.2 mm.Hg
same,dp/dt Δ,[6]; 10 min versus 0 min,-2575 mm.sec.
same,blood pressure,[6]; 30 min after admin.,94.8 ± 7.2 mm.Hg
same,dp/dt (inotropism),[6]; 30 min after admin.,7975 ± 1216 mm.sec.
same,heart frequency,[6]; 30 min after admin.,212.5 ± 21.6 min⁻¹
same,blood pressure Δ,[6]; 30 min versus 0 min,-28.7 mm.Hg
same,dp/dt Δ,[6]; 30 min versus 0 min,-2650 mm.sec.
same,blood pressure,[6]; 60 min after admin.,93.8 ± 7.8 mm.Hg
same,dp/dt (inotropism),[6]; 60 min after admin.,8275 ± 309 mm.sec.
same,heart frequency,[6]; 60 min after admin.,225.0 ± 16.2 min⁻¹
same,blood pressure Δ,[6]; 60 min versus 0 min,-29.7 mm.Hg
same,dp/dt Δ,[6]; 60 min versus 0 min,-2350 mm.sec.
same,blood pressure,[6]; 120 min after admin.,101.3 ± 11.2 mm.Hg
same,dp/dt (inotropism),[6]; 120 min after admin.,7500 ± 1022 mm.sec.
same,heart frequency,[6]; 120 min after admin.,228.0 ± 15.6 min⁻¹
same,blood pressure Δ,[6]; 120 min versus 0 min,-22.2 mm.Hg
same,dp/dt Δ,[6]; 120 min versus 0 min,-3125 mm.sec.
same,IC50,[5]; [10],6.2 µM
same,IC50,[5]; [11],22.5 µM
"O=C(O[C@H]1CO[C@H]2[C@@H]1OC[C@@H]2O[N+](=O)[O-])c1cccnc1 [Example 2b, 1.4;3.6-Dianhydro-L-iditol 2-nitrate 5-nicotinate]",activation at 25 µg/mL,[3]; [7],35.4%
same,activation at 25 µg/mL,[3]; [8],0%
same,activation at 25 µg/mL,[3]; [9],3.36%
same,LD50 at 24 h,[1],≥ 200 mg/kg
same,Frequency of death with an intravenous dose of 100 mg/kg,[2],0/6
same,Frequency of death with an intravenous dose of 200 mg/kg,[2],2/6
same,blood pressure Δ,[4]; 0.25 mg/kg i.v.,-11.40 mm.Hg
same,blood pressure afterwards,[4]; 0.25 mg/kg i.v.,47.30 ± 2.60 mm.Hg
same,blood pressure previously,[4]; 0.25 mg/kg i.v.,58.70 ± 4.30 mm.Hg
same,blood pressure Δ,[4]; 1.00 mg/kg i.v.,-15.60 mm.Hg
same,blood pressure afterwards,[4]; 1.00 mg/kg i.v.,42.70 ± 1.80 mm.Hg
same,blood pressure previously,[4]; 1.00 mg/kg i.v.,58.30 ± 2.00 mm.Hg
same,blood pressure Δ,[4]; 2.50 mg/kg i.v.,-20.70 mm.Hg
same,blood pressure afterwards,[4]; 2.50 mg/kg i.v.,33.00 ± 1.00 mm.Hg
same,blood pressure previously,[4]; 2.50 mg/kg i.v.,53.70 ± 3.30 mm.Hg
same,blood pressure-lowering effectiveness compared with ISMN and ISDN,[4],actions similar to those of ISDN
same,IC50,[5]; [10],0.28 µM
same,IC50,[5]; [11],3.1 µM
